According to patent US8871452B2, “Methods for treatment of cardiovascular disease” (The Brigham and Women's Hospital, Inc., priority 2000, dated 2014):
Entries after “also recorded” stand apart in the source; their conditions may differ. Numbered stars: 1 amine (or outer) side, 2 acyl side, 3 side chain; on linkers, the order of the positions; unused ones are H or OH. Bridge positions count the residues as written; N and C are the ends. Square brackets hold non-standard residues; d marks the D form. Peptide text beside a SMILES is read from it. I, II: the chains in the order shown. Actinocin(9to1) = Cc1c2oc3c(C)ccc(C(=O)[*:1])c3nc-2c(C(=O)[*:2])c(N)c1=O; NMeV = CN[C@H](C(=O)O)C(C)C; Sar = CNCC(=O)O

Legend:
Fit-1 mRNA expression = experiment: Northern blot of Fit-1 (T1/ST2) mRNA induction in cultured neonatal rat cardiac myocytes, with or without 8% cyclic mechanical strain; assay type: cell-based; settings: for induction of Fit-1 mRNA expression in the absence of mechanical strain: FIG. 2, 3 hours, Ang II 50 nM; for induction of Fit-1 mRNA expression in the absence of mechanical strain / rank order potency for the induction of Fit-1 mRNA expression / induction of Fit-1 mRNA expression, agent alone: IL-1β 10 ng/ml; for induction of Fit-1 mRNA expression in the absence of mechanical strain / rank order potency for the induction of T1/ST2 mRNA expression: PMA 200 nM; for rank order potency for the induction of Fit-1 mRNA expression: 8% strain; for rank order potency for the induction of Fit-1 mRNA expression / induction of Fit-1 mRNA expression, agent alone: PMA 100 ng/ml; for induction of Fit-1 mRNA expression, agent alone: no strain; for rank order potency for the induction of T1/ST2 mRNA expression: strain 8%; for induction of Fit-1 mRNA expression by 8% mechanical strain: FIG. 4, applied during strain, actinomycin D 5 μg/ml (2 and 4 hours), cyclohexamide 10 μg/ml; for strain-induced induction of Fit-1 mRNA expression / Fit-1 mRNA expression in the absence of strain: FIG. 3, H2O2 100 uM, TIRON 10 mN; for strain-induced induction of Fit-1 mRNA expression: 8% mechanical strain
Description: The approach to mechanical stimulation used an apparatus that has multiple platens that contact the underside of silicone elastomer membranes to apply a spatially isotropic biaxial strain profile to the membrane (Schaffer J L, et al., J Orthop Res, 1993, 12:709-719; and U.S. Provisional Patent Application Ser. No. 60/144,134 filed on Jul. 16, 1999 entitled “AN APPARATUS FOR STUDYING MYOCARDIAL MECHANICAL OVERLOAD HYPERTROPHY AND USES THREFOR, by Richard T. Lee, and bearing and express mail no. EL110243781US). Six individual 78 mm membranes can be stretched at once with varying amplitudes of strain by controlling displacement of each platen with a stepper motor. Measured Green strains are accurate to ˜±0.25% at strains from 1-14% (Cheng G C, et al., Circ Res, 1997, 80:28-36; Brown T D, J Biomechanics, 2000, 33:3-14). Throughout this study, 8% biaxial strain was used.
Neonatal rat ventricular myocytes (NRVM) from 1-day old Sprague-Dawley rats were isolated by previously described methods (Springhorn J P, and Claycomb W C., Biochem J, 1989; 258:73-78; Arstall M A, et al., J Mol Cell Cardiol, 1998, 30:1019-25). NRVM were plated on the coated membrane dish at a density of 2,000,000 cells/dish in DMEM containing 7% FCS and incubated 24 h. Approximate cell confluence was 85-90%. NRVM were then made quiescent by washing with 10 ml of Hanks' balanced salt solution (HBSS, 138 mM NaCl, 5.3 mM KCl, 4.0 mM NaHCO3, 1.3 mM CaCl2, 0.5 mM MgCl2, 0.4 mM MgSO4, 0.4 mM KH2PO4, 0.3 mM Na2HPO4, 5.6 mM glucose; Life Technologies, Inc., Rockville, Md.) twice and incubating with 26 ml of DMEM containing 0.2% FCS for 48-72 hours.
The cDNA clones for differentially expressed genes were obtained by PCR using the GenBank sequences. Each clone was sequenced from both 5′ and 3′ ends to confirm identity. Positive elements in the DNA microarray were confirmed by Northern blot hybridization analysis in at least three independent experiments using three different sources of NRVMs. Total RNA was isolated by the guanidium thiocyanate and phenol chloroform method (Chomcyznski, et al., Anal. Biochem., 1987, 162:156-159). For Northern blotting, 15 μg RNA was loaded on a 1.0% agarose-formaldehyde gel (2.0 mol/l), transferred to a nylon membrane (Amersham Pharmacia Biotech AB, Piscataway, N.J.), and UV cross-linked with a UV Stratalinker (Stratagene, Inc., La Jolla, Calif.). Each probe was hybridized with ExpressHyb solution (Clontech Labs., Inc., Palo Alto, Calif.) at 68° C. for 1 hour. The membrane was washed with 2×SSC, 0.05% SDS solution for 30 to 40 minutes and three times at room temperature and 0.1×SSC, 0.1% SDS solution with continuous shaking at 50° C. for 40 minutes. The membrane was exposed to film at −80° C., and radiographs were scanned and analyzed with Optimas 5.0 software (Optimas Co./Media Cybernetics, Silver Springs, Md.). Densitometric units were normalized to the ethidium-stained 28S ribosomal subunit on the membrane.
T1/ST2 mRNA is induced by mechanical strain in cultured neonatal cardiac myocytes. Neonatal rat ventricular myocytes were isolated by collagenase digestion, plated on fibronectin-coated silicone membrane dishes at a density of 3.5 million cells/dish in 13 ml media as previously described (Yamamoto K, et al. J Biol Chem. 1999; 274:21840-21846). This technique yields cultures with ≧95% myocytes. Mechanical deformation was applied using a device that provides uniform biaxial cyclic strain as previously described (Yamamoto K, et al. J Biol Chem. 1999; 274:21840-21846). RNA was extracted (Qiagen) and Northern blotting was performed using as a probe a ^32P-labelled 600 bp PCR fragment specific to rat T1/ST2. Maximal induction occurs at 3 hours, is sustained for 9 hours and declines by 15 hours.

T1/ST2 mRNA = T1/ST2 mRNA induction in human adult vascular smooth muscle cells; assay type: cell-based
[1] = FIG. 9, interleukin-1 10 ng/ml, 1 and 3 hours

In the case of `CCCCCCCCCCCCCC(=O)O[C@@H]1[C@@H](C)[C@@]2(O)[C@@H](C=C(CO)C[C@]3(O)C(=O)C(C)=C[C@@H]23)[C@@H]2C(C)(C)[C@]12OC(C)=O` [PMA], the “induction of Fit-1 mRNA expression in the absence of mechanical strain” value (from here on “induction … of mechanical strain”) (Fit-1 mRNA expression) is reported as “associated with an induction”, the “rank order potency for the induction of Fit-1 mRNA expression” value (Fit-1 mRNA expression; FIG. 5) is reported as “PMA>strain>IL-1β” and the “induction of Fit-1 mRNA expression, agent alone” value (Fit-1 mRNA expression; FIG. 5) is reported as “strongest induction”. The “rank order potency for the induction of T1/ST2 mRNA expression” value (Fit-1 mRNA expression; [1]) was “PMA>strain>interleukin-1β; also recorded: PMA>strain>IL-1” and the “induction of T1/ST2 mRNA” value (T1/ST2 mRNA) was “not”.
IL-1β: interleukin-1β, cytokine was tested, and the “induction of T1/ST2 RNA, agent alone” value (Fit-1 mRNA expression) was “induce”, the “induction … of mechanical strain” value (Fit-1 mRNA expression) was “associated with an induction” and the “induction of Fit-1 by mechanical strain in the presence of IL-1β” value (Fit-1 mRNA expression; FIG. 5, 8% strain plus IL-1β 10 ng/ml) was “not further increased”. The “rank order potency for the induction of Fit-1 mRNA expression” value (Fit-1 mRNA expression; FIG. 5) was “PMA>strain>IL-1β”, the “induction of Fit-1 mRNA expression, agent alone” value (Fit-1 mRNA expression; FIG. 5) was “induced” and the “induction of T1/ST2 by mechanical strain in the presence of interleukin-1β” value (Fit-1 mRNA expression; FIG. 9, 8% strain plus interleukin-1 10 ng/ml, 1 and 3 hours) was “not further increased”. The “rank order potency for the induction of T1/ST2 mRNA expression” value (Fit-1 mRNA expression; [1]) was “PMA>strain>interleukin-1β”, the “rank order potency for the induction of T1/ST2 mRNA expression” value (Fit-1 mRNA expression; FIG. 9, interleukin-1 10 ng/ml, 1 and 3 hours, listed as IL-1) was “PMA>strain>IL-1” and the “induction of T1/ST2 mRNA in the presence of infection with control adenovirus” value (Fit-1 mRNA expression; FIG. 10, interleukin-1 10 ng/ml, 4 hours) was “induced”. For the same compound, the “induction of T1/ST2 mRNA” value (T1/ST2 mRNA) was “induced”.
In the case of `Cc1c2oc3c(C)ccc(C(=O)N[C@@H]4C(=O)N[C@H](C(C)C)C(=O)N5CCC[C@H]5C(=O)N(C)CC(=O)N(C)[C@@H](C(C)C)C(=O)O[C@@H]4C)c3nc-2c(C(=O)N[C@@H]2C(=O)N[C@H](C(C)C)C(=O)N3CCC[C@H]3C(=O)N(C)CC(=O)N(C)[C@@H](C(C)C)C(=O)O[C@@H]2C)c(N)c1=O` [Actinomycin D, actinomycin D] (I: T[dV]P[Sar][NMeV] / II: T[dV]P[Sar][NMeV]; ester I:1-I:C, II:1-II:C; linker I:N-II:N via Actinocin(9to1)), the “induction of Fit-1 mRNA expression by 8% mechanical strain” value (Fit-1 mRNA expression) is reported as “blocked”.
For tumor necrosis factor, the “induction of T1/ST2 mRNA” value (T1/ST2 mRNA) was “not”.
`OO` [H2O2, hydrogen peroxide] was tested, and the “strain-induced induction of Fit-1 mRNA expression” value (Fit-1 mRNA expression) was “blocks” and the “Fit-1 mRNA expression in the absence of strain” value (Fit-1 mRNA expression) was “does not induce”.
With `C[C@@H]1C[C@@H]([C@H](O)CC2CC(=O)NC(=O)C2)C(=O)[C@@H](C)C1` [cyclohexamide] the “induction of Fit-1 mRNA expression by 8% mechanical strain” value (Fit-1 mRNA expression) was “blocked”.
With `O=S(=O)(O)c1cc(O)c(O)c(S(=O)(=O)O)c1` [TIRON] the “strain-induced induction of Fit-1 mRNA expression” value (Fit-1 mRNA expression) was “slightly attenuated” and the “Fit-1 mRNA expression in the absence of strain” value (Fit-1 mRNA expression) was “slightly attenuated”.
“angiotensin II (DRVYIHPF; Angiotensin-2; UniProt P01019 25-32, looked up)” was tested, and the “induction … of mechanical strain” value (Fit-1 mRNA expression) was “did not induce”.
